What was measured:
[1] = test system: S1 and S1-M1-80 (characteristic expression of ABCG2/BCRP); test: Anti-drug resistance test (MTT, resistance index); assay type: cell-based; details: S1-M1-80 (ABCG2/BCRP) versus S1 cells, 72 h, from IC50
Procedure: Logarithmic growth phase S1 and S1-M1-80 (characteristic expression of ABCG2/BCRP) were prepared as cell suspension of 2.5×10^4 cells/ml and 6×10^4 cells/ml, and were seeded in into 96-well plates with 0.19 ml/well. After incubating in cell incubator for 24 hours at 37° C., 5% CO2, sample solutions in various concentrations were added at 0.01 ml/well. Stroke-physiological saline solution is used as control well. Each treatment is conducted in 3 parallel wells. The drugs were added and incubated additional 72 h hours. And 5 mg/ml of MTT is added at 0.02 ml/well before four hours of the end the incubation. The culture liquid is removed at the end of incubation. Each well was added 0.1 ml of DMSO and OD values were measured at wavelength of 540 nm and reference wavelength of 655 nm. The experiment was repeated three times. Equation 1 is used to calculate cell growth inhibition rate (IR); and Equation 2 is used to calculate resistance index. Bliss method is used to calculate the 50% inhibitory concentration (IC50).

[2] = test system: human multiple myeloma cells NCI-H929 xenografts; test: Tumor inhibitory effect on multiple myeloma cells NCI-H929 xenografts in nude mice; assay type: in vivo, BALB/c nude mouse
Procedure: Multiple myeloma cells were routinely passaged in vitro, inoculated in 40 6-7-week-old BALB/c nude mouse, each mouse was subcutaneously injected human multiple myeloma cells NCI-H929 at its right axillary. Weighed after two days. The mice were randomly divided into five groups, eight in each group. Each group was dosed as follows: • i. physiological saline control group • ii. Topotecan positive control group, 2 mg/kg, once every 4 days, intraperitoneal injection • iii. WQ1001, high-dose group, 35 mg/kg, once every 4 days, intraperitoneal injection • iv. WQ1001, middle dose group, 25 mg/kg, once every 4 days, intraperitoneal injectionv. v. WQ1001, low dose group, 18 mg/kg, once every 4 days, intraperitoneal injection
Body weight(BW) as well as long diameter and short diameter of tumors were measured every two days. Tumor volume was calculated according to the Equation 1. On the 11th day after inoculation, the mice were weighed, long diameter and short diameter of tumors were measured, and relative tumor volume (RTV) was calculated according to Equation 2. Mice were sacrificed by cervical dislocation and the tumor mass was stripped and weighed. Inhibition rate (IR) was calculated according to the Equation 3. RTV and tumor weight (TW) for each group were analyzed through T-test.

[3] = Water-solubility test of compounds of Formula II and Formula IV; assay type: physicochemical; details: the C-20 phosphite salt (Formula II) itself, read-out: Water-solubility of Comp of Formula II
[4] = Topotecan 2 mg/kg, once every 4 days, intraperitoneal, 11th day
[5] = Topotecan 2 mg/kg, once every 4 days, intraperitoneal, end (11th day after inoculation)
[6] = Topotecan 2 mg/kg, once every 4 days, intraperitoneal, initial

SMILES | Resistance index [1] | solubility [3] | also measured
CCc1c2c(nc3ccc(O)cc13)-c1cc3c(c(=O)n1C2)COC(=O)[C@]3(O)CC [SN38, reference compound] | 290 |  | 
CC[C@@]1(O)C(=O)OCc2c1cc1n(c2=O)Cc2cc3c(CN(C)C)c(O)ccc3nc2-1 [Topotecan, reference compound] | 210 |  | anti-tumor effect on NCI-H929 xenografts in nude mice (in words) ([2]; 2 mg/kg): no significant anti-tumor effect; IR By RTV % [2, 4]: 37.3%; IR By TW % [2, 4]: 52.0%; RTV (X ± SD) [2, 4]: 25.3 ± 14.8; TW (X ± SD, g) [2, 4]: 0.71 ± 0.44 g; Bw (X ± SD, g) end [2, 5]: 19.2 ± 1.3 g; TV (X ± SD, mm^3) End [2, 5]: 1123.2 ± 608.9 mm^3; Bw (X ± SD, g) initial [2, 6]: 17.2 ± 1.0 g; TV (X ± SD, mm^3) initial [2, 6]: 45.9 ± 6.0 mm^3
CC[C@@]1(O[PH](=O)[O-])C(=O)OCc2c1cc1n(c2=O)Cc2cc3cc4c(cc3nc2-1)OCCO4.[Na+] [WQ1102] | 15 | > 10000 µg/mL | 
CCc1c2c(nc3cc4c(cc13)OCCO4)-c1cc3c(c(=O)n1C2)COC(=O)[C@@]3(CC)O[PH](=O)[O-].[Na+] [WQ1103] |  | > 10000 µg/mL | 
CC[C@@]1(O[PH](=O)[O-])C(=O)OCc2c1cc1n(c2=O)Cc2cc3cc4c(cc3nc2-1)OCO4.[Na+] [WQ1104] |  | > 10000 µg/mL | 
CCc1c2c(nc3cc4c(cc13)OCO4)-c1cc3c(c(=O)n1C2)COC(=O)[C@@]3(CC)O[PH](=O)[O-].[Na+] [WQ1105] | 20 | > 10000 µg/mL | 
CC[C@@]1(O[PH](=O)[O-])C(=O)OCc2c1cc1n(c2=O)Cc2cc3c(Cl)c4c(cc3nc2-1)OCO4.[Na+] [WQ1106] |  | > 10000 µg/mL | 
CCc1c2c(nc3ccccc13)-c1cc3c(c(=O)n1C2)COC(=O)[C@@]3(CC)O[PH](=O)[O-].[Na+] [WQ1107] |  | > 10000 µg/mL | 
CCc1c2c(nc3ccc(C)cc13)-c1cc3c(c(=O)n1C2)COC(=O)[C@@]3(CC)O[PH](=O)[O-].[Na+] [WQ1108] | 38 | > 10000 µg/mL | 
CCc1c2c(nc3ccc(Cl)cc13)-c1cc3c(c(=O)n1C2)COC(=O)[C@@]3(CC)O[PH](=O)[O-].[Na+] [WQ1109] |  | > 10000 µg/mL | 
CCc1c2c(nc3ccc(Br)cc13)-c1cc3c(c(=O)n1C2)COC(=O)[C@@]3(CC)O[PH](=O)[O-].[Na+] [WQ1110] |  | > 10000 µg/mL | 
CCc1c2c(nc3cc(F)c(F)cc13)-c1cc3c(c(=O)n1C2)COC(=O)[C@@]3(CC)O[PH](=O)[O-].[Na+] [WQ1111] | 7 | > 10000 µg/mL | 
CCc1c2c(nc3cc(F)c(C)cc13)-c1cc3c(c(=O)n1C2)COC(=O)[C@@]3(CC)O[PH](=O)[O-].[Na+] [WQ1112] |  | > 10000 µg/mL | 
CCc1c2c(nc3cc(Cl)c(Cl)cc13)-c1cc3c(c(=O)n1C2)COC(=O)[C@@]3(CC)O[PH](=O)[O-].[Na+] [WQ1113] |  | > 10000 µg/mL | 
CC[C@@]1(O[PH](=O)[O-])C(=O)OCc2c1cc1n(c2=O)Cc2c-1nc1ccccc1c2/C=N/OC(C)(C)C.[Na+] [WQ1114] | 19 | > 10000 µg/mL | 
CC[C@@]1(O[PH](=O)[O-])C(=O)OCc2c1cc1n(c2=O)Cc2c-1nc1ccccc1c2CC[Si](C)(C)C.[Na+] [WQ1115] | 25 | > 10000 µg/mL | 
CC[C@@]1(O[PH](=O)[O-])C(=O)OCc2c1cc1n(c2=O)Cc2c-1nc1ccccc1c2[Si](C)(C)C(C)(C)C.[Na+] [WQ1116] | 13 | > 10000 µg/mL | 
CC[C@@]1(O[PH](=O)[O-])C(=O)OCc2c1cc1n(c2=O)Cc2cc3cc(Cl)ccc3nc2-1.[Na+] [WQ1117] | 9 | > 10000 µg/mL | 
CC[C@@]1(O[PH](=O)[O-])C(=O)OCc2c1cc1n(c2=O)Cc2cc3cc(C)ccc3nc2-1.[Na+] [WQ1118] | 67 | > 10000 µg/mL | 
CCc1ccc2nc3c(cc2c1)Cn1c-3cc2c(c1=O)COC(=O)[C@@]2(CC)O[PH](=O)[O-].[Na+] [WQ1119] |  | > 10000 µg/mL | 
CCCc1ccc2nc3c(cc2c1)Cn1c-3cc2c(c1=O)COC(=O)[C@@]2(CC)O[PH](=O)[O-].[Na+] [WQ1120] |  | > 10000 µg/mL | 
CCCCc1ccc2nc3c(cc2c1)Cn1c-3cc2c(c1=O)COC(=O)[C@@]2(CC)O[PH](=O)[O-].[Na+] [WQ1121] |  | > 10000 µg/mL | 
CC[C@@]1(O[PH](=O)[O-])C(=O)OCc2c1cc1n(c2=O)Cc2c-1nc1ccccc1c2OC.[Na+] [WQ1122] | 5 | > 10000 µg/mL | 
CC[C@@]1(O[PH](=O)[O-])C(=O)OCc2c1cc1n(c2=O)Cc2c-1nc1ccc(C)cc1c2OC.[Na+] [WQ1123] |  | > 10000 µg/mL | 
CCc1ccc2nc3c(cc2c1OC)Cn1c-3cc2c(c1=O)COC(=O)[C@@]2(CC)O[PH](=O)[O-].[Na+] [WQ1124] |  | > 10000 µg/mL | 
CCCc1ccc2nc3c(c(OC)c2c1)Cn1c-3cc2c(c1=O)COC(=O)[C@@]2(CC)O[PH](=O)[O-].[Na+] [WQ1125] |  | > 10000 µg/mL | 
CCCCc1ccc2nc3c(c(OC)c2c1)Cn1c-3cc2c(c1=O)COC(=O)[C@@]2(CC)O[PH](=O)[O-].[Na+] [WQ1126] |  | > 10000 µg/mL | 

Source: patent US20160375042A1, “USE OF CAMPTOTHECIN DERIVATIVE IN PREPARING PHARMACEUTICAL USED FOR TREATING MULTIPLE MYELOMA” (priority 2014, published 2016)
